Reference: ChEMBL document CHEMBL4507266, “Data for DCP probe BAY-784” (2021)

Assays:
[1] = molecular target: Protein-tyrosine kinase 6 (Homo sapiens) (UniProt Q13882); settings: Compound concentration 1000.0 nM
[2] = molecular target: Serine/threonine-protein kinase PLK3 (Homo sapiens) (UniProt Q9H4B4); settings: Compound concentration 1000.0 nM
[3] = molecular target: Epithelial discoidin domain-containing receptor 1 (Homo sapiens) (UniProt Q08345); settings: Compound concentration 1000.0 nM
[4] = molecular target: Rhodopsin kinase GRK7 (Homo sapiens) (UniProt Q8WTQ7); settings: Compound concentration 1000.0 nM
[5] = molecular target: Activin receptor type-2A (Homo sapiens) (UniProt P27037); settings: Compound concentration 1000.0 nM
[6] = molecular target: Testis-specific serine/threonine-protein kinase 1 (Homo sapiens) (UniProt Q9BXA7); settings: Compound concentration 1000.0 nM
[7] = molecular target: Calcium/calmodulin-dependent protein kinase type 1D (Homo sapiens) (UniProt Q8IU85); settings: Compound concentration 1000.0 nM
Calcium/calmodulin-dependent protein kinase type 1D (Homo sapiens), sequence (Q8IU85 whole entry, looked up): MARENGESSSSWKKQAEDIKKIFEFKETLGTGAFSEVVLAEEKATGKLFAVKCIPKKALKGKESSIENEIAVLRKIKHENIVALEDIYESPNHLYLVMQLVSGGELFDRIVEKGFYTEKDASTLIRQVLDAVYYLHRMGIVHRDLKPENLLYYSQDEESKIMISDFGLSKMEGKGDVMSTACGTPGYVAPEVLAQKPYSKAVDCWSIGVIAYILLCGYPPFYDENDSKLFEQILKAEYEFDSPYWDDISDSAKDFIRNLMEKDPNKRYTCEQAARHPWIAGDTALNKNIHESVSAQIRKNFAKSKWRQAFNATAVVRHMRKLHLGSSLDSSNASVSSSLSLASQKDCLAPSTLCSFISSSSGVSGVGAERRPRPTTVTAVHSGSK

[8] = molecular target: Receptor tyrosine-protein kinase erbB-3 (Homo sapiens) (UniProt P21860); settings: Compound concentration 1000.0 nM
[9] = molecular target: Serine/threonine-protein kinase RIO1 (Homo sapiens) (UniProt Q9BRS2); settings: Compound concentration 1000.0 nM
[10] = molecular target: Protein kinase C eta type (Homo sapiens) (UniProt P24723); settings: Compound concentration 1000.0 nM
[11] = molecular target: STE20/SPS1-related proline-alanine-rich protein kinase (Homo sapiens) (UniProt Q9UEW8); settings: Compound concentration 1000.0 nM
[12] = molecular target: Tyrosine-protein kinase SYK (Homo sapiens) (UniProt P43405); settings: Compound concentration 1000.0 nM
[13] = molecular target: Serine/threonine-protein kinase N2 (Homo sapiens) (UniProt Q16513); settings: Compound concentration 1000.0 nM
[14] = molecular target: Histamine H3 receptor (Homo sapiens) (UniProt Q9Y5N1); settings: Compound concentration 10.0 uM
[15] = molecular target: Dual specificity mitogen-activated protein kinase kinase 1 (Homo sapiens) (UniProt Q02750); settings: Compound concentration 1000.0 nM
[16] = molecular target: Mitogen-activated protein kinase 13 (Homo sapiens) (UniProt O15264); settings: Compound concentration 1000.0 nM
[17] = molecular target: Phosphatidylinositol 4-phosphate 5-kinase type-1 alpha (Homo sapiens) (UniProt Q99755); settings: Compound concentration 1000.0 nM
[18] = molecular target: 1-phosphatidylinositol 3-phosphate 5-kinase (Homo sapiens) (UniProt Q9Y2I7); settings: Compound concentration 1000.0 nM
[19] = molecular target: Calcium-dependent protein kinase 1 (Plasmodium falciparum) (UniProt P62344); settings: Compound concentration 1000.0 nM
[20] = molecular target: MAP kinase-interacting serine/threonine-protein kinase 2 (Homo sapiens) (UniProt Q9HBH9); settings: Compound concentration 1000.0 nM
[21] = molecular target: Myosin-IIIb (Homo sapiens) (UniProt Q8WXR4); settings: Compound concentration 1000.0 nM
[22] = molecular target: Cyclin-dependent kinase 8 (Homo sapiens) (UniProt P49336); settings: Compound concentration 1000.0 nM
Cyclin-dependent kinase 8 (Homo sapiens), sequence (P49336 whole entry): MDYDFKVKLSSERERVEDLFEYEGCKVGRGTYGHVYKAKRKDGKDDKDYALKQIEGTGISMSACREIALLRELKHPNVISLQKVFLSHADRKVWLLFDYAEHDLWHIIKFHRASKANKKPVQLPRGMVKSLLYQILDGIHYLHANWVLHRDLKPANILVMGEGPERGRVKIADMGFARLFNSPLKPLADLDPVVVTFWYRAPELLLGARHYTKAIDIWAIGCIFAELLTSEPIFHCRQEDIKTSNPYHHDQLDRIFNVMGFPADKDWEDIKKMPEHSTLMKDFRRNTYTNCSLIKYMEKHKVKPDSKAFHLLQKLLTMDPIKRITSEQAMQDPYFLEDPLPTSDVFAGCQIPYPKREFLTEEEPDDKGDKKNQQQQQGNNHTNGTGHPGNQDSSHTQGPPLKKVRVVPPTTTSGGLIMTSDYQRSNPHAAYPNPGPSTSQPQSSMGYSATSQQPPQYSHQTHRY

[23] = molecular target: Serine/threonine-protein kinase MAK (Homo sapiens) (UniProt P20794); settings: Compound concentration 1000.0 nM
[24] = test system: Serine/threonine-protein kinase B-raf (Homo sapiens), P15056 [V600E]; settings: Compound concentration 1000.0 nM
[25] = molecular target: STE20-like serine/threonine-protein kinase (Homo sapiens) (UniProt Q9H2G2); settings: Compound concentration 1000.0 nM
[26] = molecular target: Ribosomal protein S6 kinase alpha-4 (Homo sapiens) (UniProt O75676); settings: Compound concentration 1000.0 nM
[27] = test system: eIF-2-alpha kinase GCN2 (Homo sapiens), Q9P2K8 [S808G]; settings: Compound concentration 1000.0 nM
eIF-2-alpha kinase GCN2 (Homo sapiens), Q9P2K8 [S808G], sequence (Q9P2K8 whole entry S808G): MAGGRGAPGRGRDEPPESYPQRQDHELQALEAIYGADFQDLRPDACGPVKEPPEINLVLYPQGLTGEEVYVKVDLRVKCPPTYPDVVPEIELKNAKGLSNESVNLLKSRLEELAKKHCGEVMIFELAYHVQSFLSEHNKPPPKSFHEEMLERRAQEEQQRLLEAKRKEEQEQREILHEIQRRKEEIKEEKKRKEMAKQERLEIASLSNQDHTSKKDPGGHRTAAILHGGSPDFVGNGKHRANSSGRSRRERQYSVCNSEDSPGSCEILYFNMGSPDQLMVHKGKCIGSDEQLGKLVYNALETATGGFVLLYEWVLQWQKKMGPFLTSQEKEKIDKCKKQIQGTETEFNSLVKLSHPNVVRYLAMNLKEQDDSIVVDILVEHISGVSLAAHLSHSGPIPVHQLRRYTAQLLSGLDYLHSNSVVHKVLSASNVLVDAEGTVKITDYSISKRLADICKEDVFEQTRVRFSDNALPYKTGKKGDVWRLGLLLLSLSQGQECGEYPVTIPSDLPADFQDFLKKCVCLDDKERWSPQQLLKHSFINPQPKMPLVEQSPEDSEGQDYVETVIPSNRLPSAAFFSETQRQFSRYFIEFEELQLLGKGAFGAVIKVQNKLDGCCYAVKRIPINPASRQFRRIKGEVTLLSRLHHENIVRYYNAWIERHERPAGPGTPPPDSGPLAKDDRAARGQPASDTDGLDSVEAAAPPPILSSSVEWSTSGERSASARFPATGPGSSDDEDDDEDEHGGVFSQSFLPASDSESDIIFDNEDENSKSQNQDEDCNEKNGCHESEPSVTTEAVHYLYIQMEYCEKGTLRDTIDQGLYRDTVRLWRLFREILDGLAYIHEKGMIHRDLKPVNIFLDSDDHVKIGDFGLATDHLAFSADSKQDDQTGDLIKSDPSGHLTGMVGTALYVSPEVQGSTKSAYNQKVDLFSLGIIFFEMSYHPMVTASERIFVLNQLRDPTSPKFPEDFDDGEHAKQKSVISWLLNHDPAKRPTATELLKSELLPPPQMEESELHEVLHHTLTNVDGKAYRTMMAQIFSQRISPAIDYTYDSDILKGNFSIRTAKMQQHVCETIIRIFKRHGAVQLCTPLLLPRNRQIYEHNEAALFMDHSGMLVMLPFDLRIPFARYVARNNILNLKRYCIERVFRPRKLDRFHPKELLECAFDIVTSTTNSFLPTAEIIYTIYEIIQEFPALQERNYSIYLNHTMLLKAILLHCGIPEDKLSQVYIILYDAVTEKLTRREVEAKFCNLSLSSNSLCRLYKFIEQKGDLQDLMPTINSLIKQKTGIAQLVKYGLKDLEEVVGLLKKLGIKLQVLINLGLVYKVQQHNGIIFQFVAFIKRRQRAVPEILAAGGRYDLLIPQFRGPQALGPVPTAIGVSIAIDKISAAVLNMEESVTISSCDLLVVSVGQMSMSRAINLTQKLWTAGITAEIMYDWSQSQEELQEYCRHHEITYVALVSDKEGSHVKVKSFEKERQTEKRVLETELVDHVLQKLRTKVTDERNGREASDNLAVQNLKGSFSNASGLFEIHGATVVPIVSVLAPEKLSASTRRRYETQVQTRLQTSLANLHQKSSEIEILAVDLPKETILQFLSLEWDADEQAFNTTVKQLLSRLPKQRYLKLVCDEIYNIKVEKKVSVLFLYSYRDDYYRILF

[28] = molecular target: Casein kinase II subunit alpha (Homo sapiens) (UniProt P68400); settings: Compound concentration 1000.0 nM
[29] = molecular target: T1, Alpha-2A adrenergic receptor (Homo sapiens) (UniProt P08913); settings: Compound concentration 10.0 uM
T1 sequence (whole entry): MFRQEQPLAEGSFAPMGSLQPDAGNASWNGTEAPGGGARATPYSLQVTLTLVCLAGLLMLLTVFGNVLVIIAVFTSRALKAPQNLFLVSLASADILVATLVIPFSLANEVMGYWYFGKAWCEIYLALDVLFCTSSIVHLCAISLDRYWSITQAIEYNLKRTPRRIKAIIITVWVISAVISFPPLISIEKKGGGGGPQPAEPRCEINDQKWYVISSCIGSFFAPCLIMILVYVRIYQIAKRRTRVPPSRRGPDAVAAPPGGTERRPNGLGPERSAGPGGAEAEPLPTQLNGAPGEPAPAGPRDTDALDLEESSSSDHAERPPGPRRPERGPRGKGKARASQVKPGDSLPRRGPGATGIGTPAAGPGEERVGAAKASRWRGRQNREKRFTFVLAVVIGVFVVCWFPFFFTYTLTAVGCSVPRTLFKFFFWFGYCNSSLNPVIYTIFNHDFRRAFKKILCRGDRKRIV

[30] = molecular target: Beta-1 adrenergic receptor (Homo sapiens) (UniProt P08588); settings: Compound concentration 10.0 uM
[31] = test system: Tyrosine-protein kinase ABL1 (Homo sapiens), P00519 [T315I]; settings: Compound concentration 1000.0 nM
[32] = molecular target: Serine/threonine-protein kinase mTOR (Homo sapiens) (UniProt P42345); settings: Compound concentration 1000.0 nM
[33] = molecular target: Serine/threonine-protein kinase WNK4 (Homo sapiens) (UniProt Q96J92); settings: Compound concentration 1000.0 nM
Serine/threonine-protein kinase WNK4 (Homo sapiens), sequence (Q96J92 whole entry): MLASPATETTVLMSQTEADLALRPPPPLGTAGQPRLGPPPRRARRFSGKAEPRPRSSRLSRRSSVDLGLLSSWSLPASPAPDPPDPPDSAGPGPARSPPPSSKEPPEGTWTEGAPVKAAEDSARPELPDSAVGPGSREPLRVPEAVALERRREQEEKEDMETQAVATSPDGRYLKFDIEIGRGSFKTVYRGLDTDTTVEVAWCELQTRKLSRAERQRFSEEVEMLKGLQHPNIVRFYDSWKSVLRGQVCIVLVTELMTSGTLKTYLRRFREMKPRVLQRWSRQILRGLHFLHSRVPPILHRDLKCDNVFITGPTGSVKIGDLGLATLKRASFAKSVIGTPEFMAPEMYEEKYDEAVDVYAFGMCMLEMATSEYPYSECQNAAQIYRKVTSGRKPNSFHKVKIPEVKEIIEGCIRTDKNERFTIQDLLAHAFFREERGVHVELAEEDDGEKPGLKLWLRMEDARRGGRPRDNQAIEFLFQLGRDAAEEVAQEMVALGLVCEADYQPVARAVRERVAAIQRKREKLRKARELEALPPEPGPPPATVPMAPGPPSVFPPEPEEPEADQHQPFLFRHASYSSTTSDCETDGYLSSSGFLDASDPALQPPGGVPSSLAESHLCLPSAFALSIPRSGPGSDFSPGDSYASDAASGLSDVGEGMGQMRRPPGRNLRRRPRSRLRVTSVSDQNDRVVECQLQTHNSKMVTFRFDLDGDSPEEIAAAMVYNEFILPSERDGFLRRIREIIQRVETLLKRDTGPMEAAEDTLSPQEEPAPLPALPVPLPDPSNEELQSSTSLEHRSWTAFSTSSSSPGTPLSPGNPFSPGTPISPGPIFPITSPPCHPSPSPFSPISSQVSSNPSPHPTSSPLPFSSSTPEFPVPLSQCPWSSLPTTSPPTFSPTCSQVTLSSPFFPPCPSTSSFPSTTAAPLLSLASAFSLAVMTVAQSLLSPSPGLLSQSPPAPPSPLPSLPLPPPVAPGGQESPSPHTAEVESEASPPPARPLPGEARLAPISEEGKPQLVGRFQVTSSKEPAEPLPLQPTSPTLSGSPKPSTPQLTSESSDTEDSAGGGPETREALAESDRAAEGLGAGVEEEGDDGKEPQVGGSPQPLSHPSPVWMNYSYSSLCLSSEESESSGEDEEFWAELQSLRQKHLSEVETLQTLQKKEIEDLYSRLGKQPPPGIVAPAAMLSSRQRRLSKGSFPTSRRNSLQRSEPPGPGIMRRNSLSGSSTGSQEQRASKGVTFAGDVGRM

[34] = molecular target: Mitogen-activated protein kinase 15 (Homo sapiens) (UniProt Q8TD08); settings: Compound concentration 1000.0 nM
[35] = molecular target: Serine/threonine-protein kinase TAO1 (Homo sapiens) (UniProt Q7L7X3); settings: Compound concentration 1000.0 nM
Serine/threonine-protein kinase TAO1 (Homo sapiens), sequence (Q7L7X3 whole entry): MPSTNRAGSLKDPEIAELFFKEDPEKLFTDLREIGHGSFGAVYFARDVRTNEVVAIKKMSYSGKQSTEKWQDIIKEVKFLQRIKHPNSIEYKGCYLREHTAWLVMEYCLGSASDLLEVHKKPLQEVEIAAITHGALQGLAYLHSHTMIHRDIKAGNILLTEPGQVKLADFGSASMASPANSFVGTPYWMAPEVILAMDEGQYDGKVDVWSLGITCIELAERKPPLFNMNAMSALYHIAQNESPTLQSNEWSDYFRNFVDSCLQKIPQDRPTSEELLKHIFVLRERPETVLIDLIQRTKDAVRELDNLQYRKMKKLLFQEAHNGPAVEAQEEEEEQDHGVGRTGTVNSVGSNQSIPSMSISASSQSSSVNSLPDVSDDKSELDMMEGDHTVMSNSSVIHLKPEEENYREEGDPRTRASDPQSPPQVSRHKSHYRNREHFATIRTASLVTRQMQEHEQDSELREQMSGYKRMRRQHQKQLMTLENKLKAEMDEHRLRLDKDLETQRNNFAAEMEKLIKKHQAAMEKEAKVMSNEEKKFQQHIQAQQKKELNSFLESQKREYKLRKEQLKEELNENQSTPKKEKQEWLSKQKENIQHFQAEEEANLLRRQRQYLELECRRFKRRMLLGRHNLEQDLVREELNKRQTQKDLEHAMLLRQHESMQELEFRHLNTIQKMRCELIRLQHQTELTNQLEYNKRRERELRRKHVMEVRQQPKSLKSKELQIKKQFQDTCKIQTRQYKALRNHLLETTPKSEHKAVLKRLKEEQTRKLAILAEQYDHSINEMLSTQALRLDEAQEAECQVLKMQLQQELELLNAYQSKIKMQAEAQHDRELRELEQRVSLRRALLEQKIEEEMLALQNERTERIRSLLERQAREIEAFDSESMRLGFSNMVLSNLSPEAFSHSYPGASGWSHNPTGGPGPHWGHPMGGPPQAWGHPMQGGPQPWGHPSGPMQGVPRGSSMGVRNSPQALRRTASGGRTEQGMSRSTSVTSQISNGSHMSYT

[36] = molecular target: Serine/threonine-protein kinase 32A (Homo sapiens) (UniProt Q8WU08); settings: Compound concentration 1000.0 nM
[37] = test system: Mast/stem cell growth factor receptor Kit (Homo sapiens), P10721 [V559D,T670I]; settings: Compound concentration 1000.0 nM
[38] = molecular target: MAP/microtubule affinity-regulating kinase 4 (Homo sapiens) (UniProt Q96L34); settings: Compound concentration 1000.0 nM
[39] = molecular target: Fibroblast growth factor receptor 3 (Homo sapiens) (UniProt P22607); settings: Compound concentration 1000.0 nM

O=C(NCc1ncc(C(F)(F)F)cc1Cl)c1ccc2c(c1)C1(CCS(=O)(=O)CC1)[C@H](C1CC1)N2S(=O)(=O)c1ccc(F)cc1 [BAY-784]
inactive: residual activity [1] 100% | residual activity [2] 92% | residual activity [3] 100% | residual activity [4] 80% | residual activity [5] 86% | residual activity [6] 100% | residual activity [7] 85% | residual activity [8] 100% | residual activity [9] 100% | residual activity [10] 100% | residual activity [11] 84% | residual activity [12] 100% | residual activity [13] 70% | inhibition [14] -8.26% | residual activity [15] 98% | residual activity [16] 99% | residual activity [17] 100% | residual activity [18] 84% | residual activity [19] 85% | residual activity [20] 83% | residual activity [21] 74% | residual activity [22] 80% | residual activity [23] 100% | residual activity [24] 84% | residual activity [25] 100% | residual activity [26] 91% | residual activity [27] 88% | residual activity [28] 66% | inhibition [29] -5.62% | inhibition [30] -0.08% | residual activity [31] 57% | residual activity [32] 100% | residual activity [33] 91% | residual activity [34] 100% | residual activity [35] 100% | residual activity [36] 100% | residual activity [37] 100% | residual activity [38] 100% | residual activity [39] 100%

O=C(NCc1ncc(C(F)(F)F)cc1Cl)c1ccc2c(c1)C1(CCS(=O)(=O)CC1)[C@@H](C1CC1)N2S(=O)(=O)c1ccc(F)cc1 [BAY-786]
inactive: residual activity [1] 94% | residual activity [2] 82% | residual activity [3] 100% | residual activity [4] 65% | residual activity [5] 100% | residual activity [6] 100% | residual activity [7] 99% | residual activity [8] 100% | residual activity [9] 78% | residual activity [10] 96% | residual activity [11] 77% | residual activity [12] 100% | residual activity [13] 68% | inhibition [14] 6.92% | residual activity [15] 91% | residual activity [16] 86% | residual activity [17] 100% | residual activity [18] 73% | residual activity [19] 100% | residual activity [20] 76% | residual activity [21] 100% | residual activity [22] 63% | residual activity [23] 89% | residual activity [24] 90% | residual activity [25] 100% | residual activity [26] 84% | residual activity [27] 100% | residual activity [28] 67% | inhibition [29] 6.57% | inhibition [30] -1.82% | residual activity [31] 72% | residual activity [32] 92% | residual activity [33] 100% | residual activity [34] 100% | residual activity [35] 91% | residual activity [36] 99% | residual activity [37] 87% | residual activity [38] 100% | residual activity [39] 100%
